In a melting point compilation (Tetko et al.; mined from patent text by program, amines drawn as free bases though some values may be those of a salt):

With COC(=O)c1cc(OC)c(Cl)cc1N the melting point was 63 to 64 °C. CC12CCC3c4ccc(OCc5ccccc5)cc4CCC3C1CCC2=O (centres undefined) gave a melting point of 126 to 127 °C. C=CCN1Cc2nc3c(cnn3CCCC#CC)c(N)c2C1=O gave a melting point of 138 to 140 °C. Molecule CS(=O)(=O)c1ncc(OCc2ccccc2)cn1 has a melting point of 100 to 102 °C. With COc1c(C)cnc(CS(=O)c2nc3c(C)c(OC)c(C)cc3[nH]2)c1C (centres undefined) the melting point was 137 °C. With COc1ccc2[nH]c(=O)[nH]c(=O)c2c1OC the melting point was 266 to 268 °C. For COc1ccc(S(=O)(=O)NCCc2ccc(C(C)=O)cc2)cc1, the melting point was 122 to 123 °C. Molecule O=C(NCc1ccc(C(=O)O)c(OCc2ccccc2)c1)OCc1ccccc1 has a melting point of 139 to 140 °C. CC(C)(C)c1ccc(NC(=O)Nc2cccc(C(=O)O)c2)cc1 gave a melting point of 147 to 148 °C. With O=[N+]([O-])c1ccc(Oc2cncc(Cl)c2)cc1 the melting point was 80 to 82 °C. Work on CC1(O)CC(=O)OC(CCCc2ccc(OCc3ccccc3)cc2)C1Br (centres undefined) yielded a melting point of 100 to 101 °C. With CC(Oc1ccc(N(C)c2cnc3cc(Cl)ccc3n2)cc1)C(=O)O (centres undefined) the melting point was 204 °C. In the case of COCc1cc(-c2ncc3[nH]c4cccc(Cc5ccccc5Cl)c4c3c2COC)no1, the melting point is reported as 178 to 180 °C. For O=C1N(Cc2ccc(C(F)(F)F)o2)c2ccccc2C12COc1cc3c(cc12)OCCCO3 (centres undefined), the melting point was 162 to 164 °C. For NC(=O)CCN1CCC(C(O)(c2ccc(F)cc2)c2ccc(F)cc2)CC1, the melting point was 136 to 137 °C. In the case of CC(=O)c1c(CCc2ccc(F)cc2)[nH]c2ccc(Cl)cc12, the melting point is reported as 170 to 172 °C. In the case of CNC(=O)c1ccccc1Sc1ccc(C)cc1[N+](=O)[O-], the melting point is reported as 122 to 123 °C. CCOC(=O)c1cnc(-c2ccccc2)nc1-c1ccc([N+](=O)[O-])cc1 gave a melting point of 138 to 140 °C. With O=[N+]([O-])c1cc(F)c(NS(=O)(=O)c2ccccc2)cc1F the melting point was 176 °C. O=C(O)Cc1ccc([N+](=O)[O-])c(C(=O)c2ccc(Cl)cc2)c1 showed a melting point of 182 to 183 °C. For CCN(CC)Cc1cc(Nc2snc3ccccc23)ccc1O, the melting point was 164 to 165 °C. Molecule NC(=O)c1nnn(Cc2c(Cl)cccc2Cl)c1N has a melting point of 243 to 245 °C. Molecule CCN(CC)C(=O)n1ccc(S(=O)(=O)c2cccc(Cl)c2C)n1 has a melting point of 76 to 77 °C. Molecule COc1cc2c(cc1C(=O)COc1ccc(C(=O)OCc3ccccc3)c(O)c1)C(C)(C)CCC2(C)C has a melting point of 118 to 119 °C. In the case of Cc1noc(=O)c2ccc(NC(=O)C(C)(O)CC(C)(C)c3ccccc3)cc12 (centres undefined), the melting point is reported as 173 to 175 °C. Work on COc1cc(-c2ccccc2C(F)(F)F)c(Cl)cc1C(=O)N1Cc2cccn2Cc2ccccc21 yielded a melting point of 208 to 210 °C. In the case of COc1ccc(S(=O)(=O)Nc2nsc(-c3ccc(Cl)cc3)n2)cc1OC, the melting point is reported as 220 to 221 °C. With COc1ccc(-n2nc(Sc3cc(C)cc(C)c3)c(C)c(C#N)c2=O)cc1 the melting point was 175 to 177 °C. For CCCCc1nc(S)c(C(=O)OCC)n1Cc1cc2c(cc1Cl)OCO2, the melting point was 114 °C. O=S(=O)(c1ccccc1)n1ccc2cc3c(cc21)OCO3 gave a melting point of 142 to 145 °C. Cn1ccnc1Sc1ccc(Nc2c(C#N)cnc3cc(/C=C/CCCN4CCCC4)ccc23)cc1Cl gave a melting point of 217 to 222 °C. With CCC1(CC)CN(C(C)(C)C)C(=O)C(CC)(CC)N1OC(C)c1ccccc1 (centres undefined) the melting point was 85 to 90 °C. O=C(CNC(=O)c1cc([N+](=O)[O-])c(F)cc1Cl)OCc1ccccc1 showed a melting point of 108 to 110 °C. For O=S(=O)(Nc1ccc2c(OCc3ccc(-c4ccc(C(F)(F)F)cc4)cc3F)cccc2c1)C(F)(F)F, the melting point was 98 to 100 °C. With O=C(O)c1ccccc1Nc1ccc(-c2ccc(Cl)c(Cl)c2)cc1 the melting point was > 220 °C. N=C(N)c1ccc(N2CC(CN3CCC(CC(=O)O)(C(=O)O)CC3)OC2=O)cc1 (centres undefined) showed a melting point of 145 °C. Cc1cccc(Oc2c(-c3ccc(S(C)(=O)=O)cc3)oc(C)cc2=O)c1 gave a melting point of 162 °C. Work on CCC(=O)Oc1ccc(/C=C/C=C/C(=O)NCCN2CCC(c3c[nH]c4ccccc34)CC2)cc1OC yielded a melting point of 157 to 158 °C. Molecule CCC(=O)c1[nH]c(=O)[nH]c1CC has a melting point of 212 to 213 °C.
